ChEMBL document CHEMBL4257566, “Design, synthesis and structure-based optimization of novel isoxazole-containing benzamide derivatives as FtsZ modulators” (Eur J Med Chem, 2018)
Converted amounts (≈) assume the structure as drawn.

system: Staphylococcus aureus; assay: Antibacterial activity against methicillin-resistant Staphylococcus aureus ATCC 43300 after 24 hrs by broth microdilution based CLSI method; type: functional; conditions: ATCC 43300, 24 h

SMILES	MIC [µg/mL]
CC(C)c1ccc(-c2cc(COc3ccc(F)c(C(N)=O)c3F)on2)cc1	> 64
CN(C)c1ccc(-c2cc(COc3ccc(F)c(C(N)=O)c3F)on2)cc1	> 64
CCCCCc1ccc(-c2cc(COc3ccc(F)c(C(N)=O)c3F)on2)cc1	> 64
NC(=O)c1c(F)ccc(OCc2noc(-c3ccc(Cl)cc3)c2Br)c1F	> 64
CCCCOc1cccc(-c2cc(COc3ccc(F)c(C(N)=O)c3F)on2)c1	> 64
NC(=O)c1c(F)ccc(OCc2cc(-c3ccc(-c4ccccc4)cc3)no2)c1F	> 64
CCCOc1ccc(-c2cc(COc3ccc(F)c(C(N)=O)c3F)no2)cc1	> 64
Cc1ccc(-c2cc(COc3ccc(F)c(C(N)=O)c3F)no2)cc1	> 64

system: Staphylococcus aureus; assay: Antibacterial activity against Staphylococcus aureus ATCC 25923 after 24 hrs by broth microdilution based CLSI method; type: functional; conditions: ATCC 25923, 24 h

SMILES	MIC [µg/mL]
CC(C)c1ccc(-c2cc(COc3ccc(F)c(C(N)=O)c3F)on2)cc1	> 64
CN(C)c1ccc(-c2cc(COc3ccc(F)c(C(N)=O)c3F)on2)cc1	> 64
CCCCCc1ccc(-c2cc(COc3ccc(F)c(C(N)=O)c3F)on2)cc1	> 64
NC(=O)c1c(F)ccc(OCc2noc(-c3ccc(Cl)cc3)c2Br)c1F	> 64
CCCCOc1cccc(-c2cc(COc3ccc(F)c(C(N)=O)c3F)on2)c1	> 64
NC(=O)c1c(F)ccc(OCc2cc(-c3ccc(-c4ccccc4)cc3)no2)c1F	> 64
CCCOc1ccc(-c2cc(COc3ccc(F)c(C(N)=O)c3F)no2)cc1	> 64
Cc1ccc(-c2cc(COc3ccc(F)c(C(N)=O)c3F)no2)cc1	> 64

system: Pseudomonas aeruginosa; assay: Antibacterial activity against Pseudomonas aeruginosa ATCC 27853 after 24 hrs by broth microdilution based CLSI method; type: functional; conditions: ATCC 27853, 24 h

SMILES	MIC [µg/mL]
CC(C)c1ccc(-c2cc(COc3ccc(F)c(C(N)=O)c3F)on2)cc1	> 64
CN(C)c1ccc(-c2cc(COc3ccc(F)c(C(N)=O)c3F)on2)cc1	> 64
CCCCCc1ccc(-c2cc(COc3ccc(F)c(C(N)=O)c3F)on2)cc1	> 64
NC(=O)c1c(F)ccc(OCc2noc(-c3ccc(Cl)cc3)c2Br)c1F	> 64
CCCCOc1cccc(-c2cc(COc3ccc(F)c(C(N)=O)c3F)on2)c1	> 64
NC(=O)c1c(F)ccc(OCc2cc(-c3ccc(-c4ccccc4)cc3)no2)c1F	> 64
CCCOc1ccc(-c2cc(COc3ccc(F)c(C(N)=O)c3F)no2)cc1	> 64
Cc1ccc(-c2cc(COc3ccc(F)c(C(N)=O)c3F)no2)cc1	> 64

system: Escherichia coli; assay: Antibacterial activity against Escherichia coli ATCC 25922 after 24 hrs by broth microdilution based CLSI method; type: functional; conditions: ATCC 25922, 24 h

SMILES	MIC [µg/mL]
CC(C)c1ccc(-c2cc(COc3ccc(F)c(C(N)=O)c3F)on2)cc1	> 64
CN(C)c1ccc(-c2cc(COc3ccc(F)c(C(N)=O)c3F)on2)cc1	> 64
CCCCCc1ccc(-c2cc(COc3ccc(F)c(C(N)=O)c3F)on2)cc1	> 64
NC(=O)c1c(F)ccc(OCc2noc(-c3ccc(Cl)cc3)c2Br)c1F	> 64
CCCCOc1cccc(-c2cc(COc3ccc(F)c(C(N)=O)c3F)on2)c1	> 64
NC(=O)c1c(F)ccc(OCc2cc(-c3ccc(-c4ccccc4)cc3)no2)c1F	> 64
CCCOc1ccc(-c2cc(COc3ccc(F)c(C(N)=O)c3F)no2)cc1	> 64
Cc1ccc(-c2cc(COc3ccc(F)c(C(N)=O)c3F)no2)cc1	> 64

system: Bacillus subtilis; assay: Antibacterial activity against Bacillus subtilis ATCC 9372 after 24 hrs by broth microdilution based CLSI method; type: functional; conditions: ATCC 9372, 24 h

SMILES	MIC [µg/mL]
CC(C)c1ccc(-c2cc(COc3ccc(F)c(C(N)=O)c3F)on2)cc1	2 (≈ 5.37 µM)
CN(C)c1ccc(-c2cc(COc3ccc(F)c(C(N)=O)c3F)on2)cc1	> 64
CCCCCc1ccc(-c2cc(COc3ccc(F)c(C(N)=O)c3F)on2)cc1	1 (≈ 2.5 µM)
NC(=O)c1c(F)ccc(OCc2noc(-c3ccc(Cl)cc3)c2Br)c1F	> 64
CCCCOc1cccc(-c2cc(COc3ccc(F)c(C(N)=O)c3F)on2)c1	64 (≈ 159 µM)
NC(=O)c1c(F)ccc(OCc2cc(-c3ccc(-c4ccccc4)cc3)no2)c1F	> 64
CCCOc1ccc(-c2cc(COc3ccc(F)c(C(N)=O)c3F)no2)cc1	> 64
Cc1ccc(-c2cc(COc3ccc(F)c(C(N)=O)c3F)no2)cc1	64 (≈ 186 µM)

system: Bacillus pumilus; assay: Antibacterial activity against Bacillus pumilus CMCC63202 after 24 hrs by broth microdilution based CLSI method; type: functional; conditions: CMCC63202, 24 h

SMILES	MIC [µg/mL]
CC(C)c1ccc(-c2cc(COc3ccc(F)c(C(N)=O)c3F)on2)cc1	32 (≈ 85.9 µM)
CN(C)c1ccc(-c2cc(COc3ccc(F)c(C(N)=O)c3F)on2)cc1	> 64
CCCCCc1ccc(-c2cc(COc3ccc(F)c(C(N)=O)c3F)on2)cc1	> 64
NC(=O)c1c(F)ccc(OCc2noc(-c3ccc(Cl)cc3)c2Br)c1F	> 64
CCCCOc1cccc(-c2cc(COc3ccc(F)c(C(N)=O)c3F)on2)c1	> 64
NC(=O)c1c(F)ccc(OCc2cc(-c3ccc(-c4ccccc4)cc3)no2)c1F	> 64
CCCOc1ccc(-c2cc(COc3ccc(F)c(C(N)=O)c3F)no2)cc1	> 64
Cc1ccc(-c2cc(COc3ccc(F)c(C(N)=O)c3F)no2)cc1	> 64

system: Staphylococcus aureus; assay: Antibacterial activity against clinical isolate of penicillin-resistant Staphylococcus aureus after 24 hrs by broth microdilution based CLSI method; type: functional; conditions: not given

SMILES	MIC [µg/mL]
CC(C)c1ccc(-c2cc(COc3ccc(F)c(C(N)=O)c3F)on2)cc1	> 64
CN(C)c1ccc(-c2cc(COc3ccc(F)c(C(N)=O)c3F)on2)cc1	> 64
CCCCCc1ccc(-c2cc(COc3ccc(F)c(C(N)=O)c3F)on2)cc1	> 64
NC(=O)c1c(F)ccc(OCc2noc(-c3ccc(Cl)cc3)c2Br)c1F	> 64
CCCCOc1cccc(-c2cc(COc3ccc(F)c(C(N)=O)c3F)on2)c1	> 64
NC(=O)c1c(F)ccc(OCc2cc(-c3ccc(-c4ccccc4)cc3)no2)c1F	> 64
CCCOc1ccc(-c2cc(COc3ccc(F)c(C(N)=O)c3F)no2)cc1	> 64
Cc1ccc(-c2cc(COc3ccc(F)c(C(N)=O)c3F)no2)cc1	> 64
